26 compounds from patent US10358436B2, “Kinase inhibitors and method of treating cancer” (University Health Network, priority 2010, dated 2019) can be followed below.

The structures appear in SMILES notation. Where a name gives a salt, the structure may show the parent alone.

The assay deals with Aurora A (Homo sapiens (Human), UniProt O14965). Put plainly: Aurora A inhibition assay (Z-Lyte). Format: biochemical.
Chain of Aurora A (O14965 whole entry): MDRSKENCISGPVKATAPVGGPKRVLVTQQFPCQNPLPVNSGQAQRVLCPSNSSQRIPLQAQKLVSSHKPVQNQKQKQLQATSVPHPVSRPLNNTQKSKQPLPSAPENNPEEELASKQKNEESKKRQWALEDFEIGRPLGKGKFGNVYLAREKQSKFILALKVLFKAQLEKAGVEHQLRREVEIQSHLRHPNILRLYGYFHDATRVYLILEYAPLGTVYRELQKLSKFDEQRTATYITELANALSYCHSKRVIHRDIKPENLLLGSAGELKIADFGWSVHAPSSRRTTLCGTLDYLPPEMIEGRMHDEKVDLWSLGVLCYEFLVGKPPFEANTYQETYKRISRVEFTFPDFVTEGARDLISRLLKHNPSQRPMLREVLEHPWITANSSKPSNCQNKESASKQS
For orientation: inhibition means the relative decrease from the control value, in per cent. Regarding `COc1ccc2c(c1)[C@]1(CC1c1ccc3c(/C=C/c4ccc(CN5CCCCC5)nc4)n[nH]c3c1)C(=O)N2` (mixture of isomers) [Example A62, (1R,2S)-(E)-5′-methoxy-2-(3-((E)-2-(6-(piperidin-1-ylmethyl)pyridin-3-yl)vinyl)-1H-indazol-6-yl)spiro[cyclopropane-1,3′-indolin]-2′-one 2,2,2-trifluoroacetate salt], the inhibition at 1 µM is over 50%.
Turning to `O=C1Nc2ccccc2[C@]12C[C@H]2c1ccc2c(I)n[nH]c2c1` (relative stereo) [Example A9, (1R*,2S*)-2-(3-iodo-1H-indazol-6-yl)spiro[cyclopropane-1,3′-indolin]-2′-one], the inhibition at 1 µM is under 50%.
The figure for `CN1CCN(c2ccc(-c3n[nH]c4cc([C@@H]5C[C@@]56C(=O)Nc5ccc(Br)cc56)ccc34)cn2)CC1` (relative stereo) [Example A19, (1R*,2S*)-5′-bromo-2-(3-(6-(4-methylpiperazin-1-yl)pyridin-3-yl)-1H-indazol-6-yl)spiro[cyclopropane-1,3′-indolin]-2′-one] is under 50%; for `COc1ccc2c(c1)[C@]1(C[C@H]1c1ccc3c(-c4ccc(N5CCOCC5)nc4)n[nH]c3c1)C(=O)N2` (relative stereo) [Example A20, (1R*,2S*)*-5′-Methoxy-2-(3-(6-morpholinopyridin-3-yl)-1H-indazol-6-yl)spiro[cyclopropane-1,3′-indolin]-2′-one] it is under 50%.
With `O=C1Nc2ncc(Br)cc2[C@]12C[C@H]2c1ccc2c(/C=C/c3cccnc3)n[nH]c2c1` (relative stereo) [Example A27, (1R*,2S*)-5′-bromo-2-(3-((E)-2-(pyridin-3-yl)vinyl)-1H-indazol-6-yl)spiro[cyclopropane-1,3′-pyrrolo[2,3-b]pyridin]-2′(1′H)-one], the inhibition at 1 µM is under 50%.
In the case of `O=C1Nc2ccccc2[C@]12C[C@H]2c1ccc2c(/C=C/c3cccnc3)n[nH]c2c1` (relative stereo) [Example A28, (1R*,2S*)-2-(3-((E)-2-(pyridin-3-yl)vinyl)-1H-indazol-6-yl)spiro-[cyclopropane-1,3′-indolin]-2′-one] it was over 50%.
Regarding `O=C1Nc2ccc(F)cc2[C@]12C[C@H]2c1ccc2c(I)n[nH]c2c1` (relative stereo) [Example A40, (1R*,2S*)-5′-fluoro-2-(3-iodo-1H-indazol-6-yl)spiro[cyclopropane-1,3′-indolin]-2′-one], the inhibition at 1 µM was under 50%.
The figure for `COc1ccc2c(c1)[C@]1(C[C@H]1c1ccc3c(/C=C/c4ccc(CN5CCOCC5)cc4)n[nH]c3c1)C(=O)N2` (relative stereo) [Example A41, (1R*,2S*)-(E)-5′-methoxy-2-(3-(4-(morpholinomethyl)styryl)-1H-indazol-6-yl)spiro[cyclopropane-1,3′-indolin]-2′-one 2,2,2-trifluoroacetate] is over 50%; for `COc1ccc2c(c1)[C@]1(C[C@H]1c1ccc3c(-c4cccc(CN5CCCCC5)c4)n[nH]c3c1)C(=O)N2` (relative stereo) [Example A44, (1R*,2S*)-5′-methoxy-2-(3-(3-(piperidin-1-ylmethyl)phenyl)-1H-indazol-6-yl)spiro[cyclopropane-1,3′-indolin]-2′-one 2,2,2-trifluoroacetate] it is under 50%.
Compound `COc1ccc2c(c1)[C@]1(C[C@H]1c1ccc3c(-c4ccc(CO)cc4)n[nH]c3c1)C(=O)N2` (relative stereo) [Example A45, (1R*,2S*)-2-(3-(4-(hydroxymethyl)phenyl)-1H-indazol-6-yl)-5′-methoxyspiro[cyclopropane-1,3′-indolin]-2′-one 2,2,2-trifluoroacetate] gave an inhibition at 1 µM of under 50%.
The figure for `COc1ccc2c(c1)[C@]1(C[C@H]1c1ccc3c(-c4cccc(N5CCNCC5)c4)n[nH]c3c1)C(=O)N2` (relative stereo) [Example A47, (1R*,2S*)-5′-methoxy-2-(3-(3-(piperazin-1-yl)phenyl)-1H-indazol-6-yl)spiro[cyclopropane-1,3′-indolin]-2′-one 2,2,2-trifluoroacetate] is under 50%; for `COc1ccc2c(c1)[C@]1(C[C@H]1c1ccc3c(-c4ccc(N5CCNCC5)cc4)n[nH]c3c1)C(=O)N2` (relative stereo) [Example A48, (1R*,2S*)-5′-methoxy-2-(3-(4-(piperazin-1-yl)phenyl)-1H-indazol-6-yl)spiro[cyclopropane-1,3′-indolin]-2′-one 2,2,2-trifluoroacetate] it is under 50%.
In the case of `COc1ccc2c(c1)[C@]1(C[C@H]1c1ccc3c(C#Cc4cccnc4)n[nH]c3c1)C(=O)N2` (relative stereo) [Example A52, (1R*,2S*)- and (1R*,2S*)-5′-methoxy-2-(3-(pyridin-3-ylethynyl)-1H-indazol-6-yl)spiro[cyclopropane-1,3′-indolin]-2′-one] it was under 50%; in that of `O=C1Nc2ccccc2[C@]12C[C@H]2c1ccc2c(/C=C/c3ccccn3)n[nH]c2c1` (relative stereo) [Example A53, (1R*,2S*)-2-(3-((E)-2-(pyridin-2-yl)vinyl)-1H-indazol-6-yl)spiro[cyclopropane-1,3′-indolin]-2′-one], over 50%.
The compound `N#Cc1ccc(/C=C/c2n[nH]c3cc([C@@H]4C[C@@]45C(=O)Nc4ccccc45)ccc23)cc1` (relative stereo) [Example A54, 4-((E)-2-(6-((1R*,2S*)-2′-oxospiro[cyclopropane-1,3′-indoline]-2-yl)-1H-indazol-3-yl)vinyl)benzonitrile] yielded an inhibition at 1 µM of over 50%.
As for `O=C1Nc2ccccc2[C@]12C[C@H]2c1ccc2c(/C=C/c3ccc(CN4CCCCC4)cc3)n[nH]c2c1` (relative stereo) [Example A57, (1R*,2S*)-(E)-2-(3-(4-(piperidin-1-ylmethyl)styryl)-1H-indazol-6-yl)spiro[cyclopropane-1,3′-indolin]-2′-one 2,2,2-trifluoroacetate], the inhibition at 1 µM is over 50%.
The figure for `O=C1Nc2ccccc2[C@]12C[C@H]2c1ccc2c(/C=C/c3ccc(CN4CCCC4)cc3)n[nH]c2c1` (relative stereo) [Example A60, (1R*,2S*)-(E)-2-(3-(4-(pyrrolidin-1-ylmethyl)styryl)-1H-indazol-6-yl)spiro[cyclopropane-1,3′-indolin]-2′-one 2,2,2-trifluoroacetate] is over 50%; for `O=C1Nc2ccccc2[C@]12C[C@H]2c1ccc2c(/C=C/c3ccc(CN4CCCCC4)nc3)n[nH]c2c1` (relative stereo) [Example A63, (1R*,2S*)-(E)-2-(3-((E)-2-(6-(piperidin-1-ylmethyl)pyridin-3-yl)vinyl)-1H-indazol-6-yl)spiro[cyclopropane-1,3′-indolin]-2′-one 2,2,2-trifluoroacetate salt] it is over 50%.
In the case of `CN1C(=O)[C@@]2(C[C@H]2c2ccc3c(/C=C/c4ccc(CN5CCOCC5)cc4)n[nH]c3c2)c2ccccc21` (relative stereo) [Example A87, (1R*,2S*)-(E)-1′-methyl-2-(3-(4-(morpholinomethyl)styryl)-1H-indazol-6-yl)spiro[cyclopropane-1,3′-indolin]-2′-one 2,2,2-trifluoroacetate] it was over 50%; in that of `COc1ccc2c(c1)[C@]1(C[C@H]1c1ccc3c(-c4ccc(N5CCN(C(C)C)CC5)cc4)n[nH]c3c1)C(=O)N2` (relative stereo) [Example A96, (1R*,2S*)-2-(3-(4-(4-isopropylpiperazin-1-yl)phenyl)-1H-indazol-6-yl)-5′-methoxyspiro[cyclopropane-1,3′-indolin]-2′-one], under 50%.
The figure for `COc1ccc2c(c1)[C@]1(C[C@H]1c1ccc3c(-c4ccc(N5CCC(O)CC5)nc4)n[nH]c3c1)C(=O)N2` (relative stereo) [Example A117, (1R*,2S*)-2-(3-(6-(4-hydroxypiperidin-1-yl)pyridin-3-yl)-1H-indazol-6-yl)-S-methoxyspiro[cyclopropane-1,3′-indolin]-2′-one 2,2,2-trifluoroacetate] is under 50%; for `COc1ccc2c(c1)[C@]1(C[C@H]1c1ccc3c(-c4ccc(N5CCC(N(C)C)CC5)cc4)n[nH]c3c1)C(=O)N2` (relative stereo) [Example A119, (1R*,2S*)-2-(3-(4-(4-(dimethylamino)piperidin-1-yl)phenyl)-1H-indazol-6-yl)-5′-methoxyspiro[cyclopropane-1,3′-indolin]-2′-one 2,2,2-trifluoroacetate] it is under 50%; for `COc1ccc2c(c1)[C@]1(C[C@H]1c1ccc3c(-c4ccc(C5CCNCC5)cc4)n[nH]c3c1)C(=O)N2` (relative stereo) [Example A122, (1R*,2S*)-5′-methoxy-2-(3-(4-(piperidin-4-yl)phenyl)-1H-indazol-6-yl)spiro[cyclopropane-1,3′-indolin]-2′-one 2,2,2-trifluoroacetate] it is under 50%.
Turning to `NS(=O)(=O)c1cccc(-c2n[nH]c3cc([C@@H]4C[C@@]45C(=O)Nc4ccccc45)ccc23)c1` (relative stereo) [Example A130, 3-(6-((1R*,2S*)-2′-oxospiro[cyclopropane-1,3′-indoline]-2-yl)-1H-indazol-3-yl)benzenesulfonamide], the inhibition at 1 µM was under 50%.
Turning to `COc1ccc2c(c1)[C@]1(C[C@H]1c1ccc3c(/C=C/c4cccc(CN5CCOCC5)c4)n[nH]c3c1)C(=O)N2` (relative stereo) [Example A133, (1R*,2S*)-5′-methoxy-2-(3-(3-(morpholinomethyl)styryl)-1H-indazol-6-yl)spiro[cyclopropane-1,3′-indolin]-2′-one 2,2,2-trifluoroacetate], the inhibition at 1 µM is over 50%.
The figure for `COc1ccc2c(c1)[C@]1(C[C@H]1c1ccc3c(/C=C/c4cccc(CN(C)C)c4)n[nH]c3c1)C(=O)N2` (relative stereo) [Example A135, (1R*,2S*)-2-(3-(3-((dimethylamino)methyl)styryl)-1H-indazol-6-yl)-5′-methoxyspiro[cyclopropane-1,3′-indolin]-2′-one 2,2,2-trifluoroacetate] is over 50%.
